Paper PMC3100226 (Journal of Pain Research, 2011)

Key:
conscious dog = assay: Safety pharmacology, cardiovascular, conscious dog; type: in vivo; conditions: supra-pharmacological doses
TNF-α converting enzyme = TNF-α converting enzyme (Homo sapiens, UniProt P78536); assay: Enzyme characterization panel: TNF-α converting enzyme; type: biochemical; conditions: data not shown
[1] = tested on: capsaicin-induced neurogenic/inflammatory pain in rats; assay: Capsaicin-induced mechanical hyperalgesia; type: in vivo; conditions: rat
[2] = tested on: STZ-induced diabetic pain in rats; assay: Streptozotocin-induced neuropathic; type: in vivo; conditions: rat, 60 mg/kg oral
conscious rat = assay: Safety pharmacology, respiratory, conscious rat; type: in vivo; conditions: supra-pharmacological doses
imidazoline I2 receptor = assay: [3H]2-BFI binding to imidazoline I2 receptors in rat whole-brain membranes; conditions: read-out: IC50, nM, [3H]2-BFI binding to the imidazoline I2 receptor; Table S2; rat whole brain membranes, […] [3H]2-BFI, 90 minutes at 25°C; mean ± SEM
[3] = target: inducible NO synthase (iNOS) (Homo sapiens, UniProt P35228); assay: Enzyme characterization panel: iNOS; type: biochemical; conditions: data not shown
BDZ (central) = assay: Receptor characterization panel: central BDZ binding; conditions: 10 μM; [3H]Flunitrazepam; cerebral cortex/rat
CCK2 = target: T1, CCK2 (Cavia porcellus, UniProt H0VZC5); assay: Receptor characterization panel: CCK2 binding; design: species or system guinea pig; conditions: read-out: 10 μM CR4056 (% effect), inhibition of specific binding
T1 sequence (H0VZC5 1-426): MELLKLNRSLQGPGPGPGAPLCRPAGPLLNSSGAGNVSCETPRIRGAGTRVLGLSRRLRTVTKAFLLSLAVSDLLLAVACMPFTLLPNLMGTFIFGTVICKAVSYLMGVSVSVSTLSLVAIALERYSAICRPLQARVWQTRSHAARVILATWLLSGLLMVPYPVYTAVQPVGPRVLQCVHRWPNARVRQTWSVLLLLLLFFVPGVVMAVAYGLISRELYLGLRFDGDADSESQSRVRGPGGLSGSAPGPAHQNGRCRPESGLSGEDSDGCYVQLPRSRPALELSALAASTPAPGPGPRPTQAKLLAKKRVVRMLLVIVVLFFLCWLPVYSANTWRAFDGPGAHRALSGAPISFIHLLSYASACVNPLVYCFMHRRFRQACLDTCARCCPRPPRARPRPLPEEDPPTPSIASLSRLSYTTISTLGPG

[4] = tested on: locomotor activity of rats; assay: Open field test; type: in vivo; conditions: rat; 3–30 mg/kg oral, one hour after administration
I1 = I1 (Bos taurus, UniProt F1N322); assay: Receptor characterization panel: I1 binding; design: species or system bovine; conditions: read-out: 10 μM CR4056 (% effect), inhibition of specific binding
D2 = D2 (Rattus norvegicus, UniProt P61169); assay: Receptor characterization panel: D2 binding; conditions: read-out: 10 μM CR4056 (% effect), inhibition of specific binding
rats = assay: Diuretic effect in rats; type: in vivo, rat; conditions: pharmacological/toxicological dose range
human recombinant MAO-A = human recombinant MAO-A (Homo sapiens, UniProt P21397); assay: Human recombinant MAO-A functional assay; type: biochemical
MAO-B = target: T2, MAO-B (Rattus norvegicus, UniProt P19643); assay: MAO-B binding
T2 sequence (P19643 1-520): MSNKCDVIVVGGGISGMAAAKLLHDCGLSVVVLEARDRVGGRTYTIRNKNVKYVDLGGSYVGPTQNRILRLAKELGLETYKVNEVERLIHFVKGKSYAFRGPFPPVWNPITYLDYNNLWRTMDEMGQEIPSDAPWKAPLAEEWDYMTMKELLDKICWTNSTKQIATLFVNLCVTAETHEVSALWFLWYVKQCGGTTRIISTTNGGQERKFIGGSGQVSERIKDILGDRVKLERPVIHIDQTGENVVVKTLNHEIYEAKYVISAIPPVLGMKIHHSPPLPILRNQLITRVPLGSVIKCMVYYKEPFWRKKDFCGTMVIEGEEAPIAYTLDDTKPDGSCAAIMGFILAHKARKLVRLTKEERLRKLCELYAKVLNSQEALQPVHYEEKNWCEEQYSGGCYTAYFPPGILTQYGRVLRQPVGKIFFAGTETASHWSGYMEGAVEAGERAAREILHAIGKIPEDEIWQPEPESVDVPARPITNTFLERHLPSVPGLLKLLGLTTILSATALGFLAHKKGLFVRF

I2 = assay: Receptor characterization panel: I2 binding; conditions: 10 μM; [3H]Idazoxan (+1 μM yohimbine); cerebral cortex/rat
[5] = target: Glycine (strychnine-sensitive) (Rattus norvegicus, UniProt P07727); assay: Receptor characterization panel: glycine receptor binding; conditions: read-out: 10 μM CR4056 (% effect), inhibition of specific binding
5-HT3 = 5-HT3 (Rattus norvegicus, UniProt P35563); assay: Receptor characterization panel: 5-HT3 binding; conditions: read-out: 10 μM CR4056 (% effect), inhibition of specific binding
PI 3-Kβ = PI 3-Kβ (Homo sapiens, UniProt P42338); assay: Enzyme characterization panel: PI 3-Kβ; type: biochemical; conditions: data not shown
[6] = tested on: neuromuscular coordination of rats; assay: Rotarod test; type: in vivo; conditions: rat; oral 3–30 mg/kg
human mTOR kinase = human mTOR kinase (Homo sapiens, UniProt P42345); assay: Enzyme characterization panel: mTOR kinase; type: biochemical; conditions: data not shown
[7] = tested on: acid-induced muscle allodynia in rats; assay: Acid-induced muscle allodynia; type: in vivo; conditions: rat; for Mechanical threshold (grams) ± SEM, left paw (SX) / Mechanical threshold (grams) ± SEM, right paw (DX): day 6 after treatment, OS

Sequence of I1 (F1N322 1-1508): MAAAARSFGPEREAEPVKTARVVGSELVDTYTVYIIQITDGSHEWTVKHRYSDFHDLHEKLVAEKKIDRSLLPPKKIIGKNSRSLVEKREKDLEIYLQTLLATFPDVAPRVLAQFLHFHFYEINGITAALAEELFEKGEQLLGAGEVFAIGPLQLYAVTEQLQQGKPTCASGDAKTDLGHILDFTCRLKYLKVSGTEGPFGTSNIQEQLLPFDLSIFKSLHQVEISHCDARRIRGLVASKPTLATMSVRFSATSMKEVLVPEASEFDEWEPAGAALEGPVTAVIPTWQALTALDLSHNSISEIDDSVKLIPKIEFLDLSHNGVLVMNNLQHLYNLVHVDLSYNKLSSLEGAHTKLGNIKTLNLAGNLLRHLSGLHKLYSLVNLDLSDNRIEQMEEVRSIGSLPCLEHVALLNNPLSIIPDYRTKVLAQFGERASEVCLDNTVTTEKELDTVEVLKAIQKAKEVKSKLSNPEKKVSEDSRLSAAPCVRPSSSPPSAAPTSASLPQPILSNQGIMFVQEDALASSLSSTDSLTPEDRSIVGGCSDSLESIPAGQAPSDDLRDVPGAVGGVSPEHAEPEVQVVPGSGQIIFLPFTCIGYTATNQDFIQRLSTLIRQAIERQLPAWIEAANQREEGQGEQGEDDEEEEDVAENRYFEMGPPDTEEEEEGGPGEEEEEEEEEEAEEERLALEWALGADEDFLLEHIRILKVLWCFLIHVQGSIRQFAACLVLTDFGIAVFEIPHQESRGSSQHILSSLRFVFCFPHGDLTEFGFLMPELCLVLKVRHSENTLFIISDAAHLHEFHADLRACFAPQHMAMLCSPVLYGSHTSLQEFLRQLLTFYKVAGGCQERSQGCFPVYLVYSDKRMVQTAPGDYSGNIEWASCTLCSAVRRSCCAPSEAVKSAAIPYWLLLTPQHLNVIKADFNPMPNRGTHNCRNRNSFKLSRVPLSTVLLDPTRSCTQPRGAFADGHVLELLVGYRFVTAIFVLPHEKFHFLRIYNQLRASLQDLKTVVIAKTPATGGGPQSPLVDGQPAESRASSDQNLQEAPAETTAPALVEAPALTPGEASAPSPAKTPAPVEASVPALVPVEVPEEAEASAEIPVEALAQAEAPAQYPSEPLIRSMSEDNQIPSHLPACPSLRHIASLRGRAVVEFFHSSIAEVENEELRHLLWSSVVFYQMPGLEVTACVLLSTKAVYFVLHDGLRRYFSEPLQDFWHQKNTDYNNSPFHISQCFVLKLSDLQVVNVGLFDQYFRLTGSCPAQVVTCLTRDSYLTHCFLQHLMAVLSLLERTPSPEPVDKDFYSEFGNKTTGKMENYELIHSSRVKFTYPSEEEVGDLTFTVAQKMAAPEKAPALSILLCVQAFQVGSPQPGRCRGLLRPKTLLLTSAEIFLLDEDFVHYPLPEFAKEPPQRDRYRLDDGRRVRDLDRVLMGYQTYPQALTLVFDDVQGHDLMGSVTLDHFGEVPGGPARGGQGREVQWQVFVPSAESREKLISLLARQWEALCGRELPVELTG
Sequence of TNF-α converting enzyme (P78536 215-824, species assumed): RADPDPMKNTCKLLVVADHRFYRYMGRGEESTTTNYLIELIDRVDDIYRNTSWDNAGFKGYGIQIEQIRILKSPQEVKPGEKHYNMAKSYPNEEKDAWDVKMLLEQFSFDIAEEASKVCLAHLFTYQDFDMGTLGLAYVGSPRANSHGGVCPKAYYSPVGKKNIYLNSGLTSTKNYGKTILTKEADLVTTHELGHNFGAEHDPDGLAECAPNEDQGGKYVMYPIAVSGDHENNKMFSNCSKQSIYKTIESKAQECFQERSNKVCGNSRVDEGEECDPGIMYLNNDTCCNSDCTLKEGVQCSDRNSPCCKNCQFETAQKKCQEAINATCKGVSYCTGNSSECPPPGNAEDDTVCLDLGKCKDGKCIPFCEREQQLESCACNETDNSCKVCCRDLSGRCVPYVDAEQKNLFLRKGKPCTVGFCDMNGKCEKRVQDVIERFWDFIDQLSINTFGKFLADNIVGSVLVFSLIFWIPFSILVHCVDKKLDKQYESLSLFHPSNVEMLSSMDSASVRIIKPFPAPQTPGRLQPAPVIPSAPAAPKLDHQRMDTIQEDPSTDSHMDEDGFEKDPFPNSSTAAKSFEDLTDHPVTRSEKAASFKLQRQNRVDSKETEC
Sequence of PI 3-Kβ (P42338 whole entry, species assumed): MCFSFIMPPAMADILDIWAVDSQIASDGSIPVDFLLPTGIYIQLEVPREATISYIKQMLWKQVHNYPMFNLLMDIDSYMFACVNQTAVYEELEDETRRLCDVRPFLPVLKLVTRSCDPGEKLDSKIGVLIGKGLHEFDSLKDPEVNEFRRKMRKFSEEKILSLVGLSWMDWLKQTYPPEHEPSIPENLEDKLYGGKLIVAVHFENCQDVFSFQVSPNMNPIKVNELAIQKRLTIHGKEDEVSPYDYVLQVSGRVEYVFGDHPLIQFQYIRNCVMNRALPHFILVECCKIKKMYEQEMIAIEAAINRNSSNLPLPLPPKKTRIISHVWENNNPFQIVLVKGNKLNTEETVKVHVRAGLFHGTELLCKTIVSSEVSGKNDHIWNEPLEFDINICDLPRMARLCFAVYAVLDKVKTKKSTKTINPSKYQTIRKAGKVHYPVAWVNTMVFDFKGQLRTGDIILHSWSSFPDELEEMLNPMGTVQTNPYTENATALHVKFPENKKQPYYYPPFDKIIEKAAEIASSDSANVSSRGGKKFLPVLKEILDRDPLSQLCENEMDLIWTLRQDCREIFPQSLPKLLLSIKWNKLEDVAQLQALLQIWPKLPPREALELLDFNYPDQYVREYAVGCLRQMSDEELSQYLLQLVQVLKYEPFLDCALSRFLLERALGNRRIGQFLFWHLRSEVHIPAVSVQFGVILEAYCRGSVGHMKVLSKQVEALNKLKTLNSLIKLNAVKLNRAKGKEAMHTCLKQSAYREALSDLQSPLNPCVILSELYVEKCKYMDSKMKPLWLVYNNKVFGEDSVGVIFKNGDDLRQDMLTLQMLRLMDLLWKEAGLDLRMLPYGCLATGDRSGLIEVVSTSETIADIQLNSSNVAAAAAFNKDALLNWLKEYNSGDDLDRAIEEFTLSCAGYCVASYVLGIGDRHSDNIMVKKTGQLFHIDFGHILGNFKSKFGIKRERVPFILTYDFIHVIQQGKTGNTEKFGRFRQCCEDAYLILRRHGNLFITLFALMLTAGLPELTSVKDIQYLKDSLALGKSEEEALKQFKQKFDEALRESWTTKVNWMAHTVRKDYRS
Sequence of PI 3-Kβ (P27986 whole entry partner, species assumed): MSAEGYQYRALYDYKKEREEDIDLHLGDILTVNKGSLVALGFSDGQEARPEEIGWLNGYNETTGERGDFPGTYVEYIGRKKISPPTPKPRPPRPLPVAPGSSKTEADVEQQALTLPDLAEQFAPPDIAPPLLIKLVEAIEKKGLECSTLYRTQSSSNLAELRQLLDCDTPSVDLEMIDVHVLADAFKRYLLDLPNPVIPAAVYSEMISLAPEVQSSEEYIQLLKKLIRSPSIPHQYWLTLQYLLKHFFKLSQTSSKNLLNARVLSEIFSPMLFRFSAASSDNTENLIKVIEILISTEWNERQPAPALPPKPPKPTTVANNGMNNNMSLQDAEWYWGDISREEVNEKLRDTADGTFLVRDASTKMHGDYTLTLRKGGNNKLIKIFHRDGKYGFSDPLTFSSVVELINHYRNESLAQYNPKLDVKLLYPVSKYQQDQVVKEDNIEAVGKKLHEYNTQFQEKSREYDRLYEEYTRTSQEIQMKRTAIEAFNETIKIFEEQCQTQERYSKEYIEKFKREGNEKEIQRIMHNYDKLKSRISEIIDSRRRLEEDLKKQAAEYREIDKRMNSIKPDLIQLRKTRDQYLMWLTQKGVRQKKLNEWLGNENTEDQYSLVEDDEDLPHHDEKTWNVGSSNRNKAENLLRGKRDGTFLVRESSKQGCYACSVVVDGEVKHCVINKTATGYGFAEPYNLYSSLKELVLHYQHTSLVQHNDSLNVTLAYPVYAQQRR
Sequence of D2 (P61169 whole entry): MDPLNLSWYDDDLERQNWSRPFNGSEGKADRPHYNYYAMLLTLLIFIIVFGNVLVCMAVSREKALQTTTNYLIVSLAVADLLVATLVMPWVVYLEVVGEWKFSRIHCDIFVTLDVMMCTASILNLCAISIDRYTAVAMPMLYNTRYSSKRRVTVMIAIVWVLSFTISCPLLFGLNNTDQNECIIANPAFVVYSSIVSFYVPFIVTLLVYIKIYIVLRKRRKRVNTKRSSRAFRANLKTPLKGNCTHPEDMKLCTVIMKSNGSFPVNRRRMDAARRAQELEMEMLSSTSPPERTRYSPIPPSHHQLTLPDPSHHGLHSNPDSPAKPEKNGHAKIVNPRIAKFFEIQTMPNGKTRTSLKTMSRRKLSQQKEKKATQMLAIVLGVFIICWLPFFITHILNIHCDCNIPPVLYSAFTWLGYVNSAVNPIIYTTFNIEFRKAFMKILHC
Sequence of human recombinant MAO-A (P21397 whole entry): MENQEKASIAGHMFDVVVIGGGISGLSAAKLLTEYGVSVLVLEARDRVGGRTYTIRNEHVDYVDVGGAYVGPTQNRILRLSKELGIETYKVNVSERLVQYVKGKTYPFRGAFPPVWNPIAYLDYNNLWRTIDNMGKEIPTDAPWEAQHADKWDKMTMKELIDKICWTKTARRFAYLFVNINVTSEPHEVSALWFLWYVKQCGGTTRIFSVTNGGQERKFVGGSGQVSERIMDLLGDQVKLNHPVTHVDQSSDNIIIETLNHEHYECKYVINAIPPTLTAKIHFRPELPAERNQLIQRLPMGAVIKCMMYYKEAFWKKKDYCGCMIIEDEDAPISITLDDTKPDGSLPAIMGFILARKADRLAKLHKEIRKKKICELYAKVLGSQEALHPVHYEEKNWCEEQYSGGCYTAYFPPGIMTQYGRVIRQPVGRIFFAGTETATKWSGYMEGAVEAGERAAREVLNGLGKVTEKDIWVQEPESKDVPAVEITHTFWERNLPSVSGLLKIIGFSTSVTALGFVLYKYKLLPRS

## c1ccc(-c2ncc3cc(-n4ccnc4)ccc3n2)cc1 [CR4056, 2-phenyl-6-(1H-imidazol-1yl)quinazoline]
Conscious dog
  Cardiovascular effects: slight hypertensive effects associated with tachycardia
TNF-α converting enzyme
  Activity in enzyme characterization panel: inactive
[1]; 10 mg/kg oral, P < 0.001 versus vehicle
  Reversal of the decrease in withdrawal threshold caused by capsaicin: significantly reversed
[1]; 30 mg/kg oral
  Reversal of the effect of capsaicin: completely reversed
[1]; p.o.
  ED50, capsaicin-induced mechanical hyperalgesia, CR4056 alone: 4.13 mg/kg
  ED100, capsaicin-induced mechanical hyperalgesia: 17.9 mg/kg
[2]
  Decrease of total STZ-induced hyperalgesic effect, AUC analysis (0–6 hours): 84%
  Reduction of mechanical hyperalgesia at 6 hours post-dosing: 58%
[2]; within 30 minutes
  Reversal of STZ-induced mechanical hyperalgesia: completely reversed
Conscious rat
  Respiratory effects: tachypnea associated with a respiratory stimulant effect
Imidazoline I2 receptor
  IC50: 596 ± 76 nM
[3]
  Activity in enzyme characterization panel: inactive
BDZ (central)
  10 μM CR4056 (% effect), inhibition of specific binding: 21%
CCK2
  inhibition at 10 µM: 16%
[4]
  Locomotor activity levels in open field test: no statistical differences
I1
  inhibition at 10 µM: 23%
D2
  inhibition at 10 µM: 25%
rats
  Diuretic effect: dose-dependent diuretic effect
Human recombinant MAO-A
  IC50: 203 ± 10.3 nM
MAO-B; rat cerebral membranes, [3H]Ro 19-6327 15 nM
  Concentrations for inhibition of MAO-B specific binding relative to MAO-A: two orders of magnitude higher
MAO-B; read-out: 10 μM CR4056 (% effect), inhibition of specific binding
  inhibition at 10 µM: 35%
I2
  10 μM CR4056 (% effect), inhibition of specific binding: 66%
[5]
  inhibition at 10 µM: 19%
5-HT3
  inhibition at 10 µM: 28%
PI 3-Kβ
  Activity in enzyme characterization panel: inactive
[6]
  Performance in rotarod test: did not cause a deterioration
Human mTOR kinase
  Activity in enzyme characterization panel: inactive
[7]; 20 and 60 mg/kg oral
  Reversal of acidic saline induced allodynia: completely reversed
[7]; 6 mg/kg
  Mechanical threshold (grams) ± SEM, left paw (SX): 27.9 ± 1.1 grams
  Mechanical threshold (grams) ± SEM, right paw (DX): 28.3 ± 1.9 grams
[7]; 20 mg/kg
  Mechanical threshold (grams) ± SEM, left paw (SX): 37.1 ± 0.8 grams
  Mechanical threshold (grams) ± SEM, right paw (DX): 38.4 ± 1.7 grams
[7]; 60 mg/kg
  Mechanical threshold (grams) ± SEM, left paw (SX): 39.2 ± 1.6 grams
  Mechanical threshold (grams) ± SEM, right paw (DX): 37.4 ± 2.1 grams
